Test results from patent publication US5672715A, “Herbicidal substituted 3-aryl-pyrazoles” (Monsanto Company, priority 1995, dated 1997).
“And” between values parts separate entries of the source, which are not always exact repeats. Equal entries are not always repeated.

How the values were obtained:
Format in all cases: in vivo
Wheat [1] = assay: post-emergence herbicide test; conditions: Triticum aestivum, post-emergence, 0.25 lb/A; read-out: % plant inhibition
Source text: (§1) Topsoil was placed in aluminum pans having holes in the bottom and compacted to a depth of 1.3 to 1.6 cm from the top of the pan. A predetermined number of seeds of each of several dicotyledonous and monocotyledonous annual plant species and/or vegetative propagules for the perennial plant species were placed on the soil and pressed into the soil surface. The seeds and/or vegetative propagules were covered with soil and leveled. The pans were then placed on a bench in the greenhouse and watered either from overheard irrigation or by subirrigation as needed. After the plants reach the desired age (two to three weeks), each pan, is removed individually to a spraying chamber and sprayed by means of an atomizer, operating at a spray pressure of 170.3 kPa […] at the application rates noted. In the spray solution was an amount of an emulsifying agent mixture to give a spray solution or suspension which contains about 0.4% by volume of the emulsifier. The spray solution or suspension contained a sufficient amount of the candidate chemical in order to give application rates of the active ingredient corresponding to those shown in Tables 4 and 5, while applying a total amount of solution or suspension equivalent to 1870 L/Ha (200 gallons/acre). […] The post-emergent herbicidal activity shown in these tables is the percent inhibition of each plant species. Testing with warm season and cool season plants is shown in tables 4a-4d and […], respectively.

Barnyardgrass [2] = assay: post-emergence herbicide test; conditions: Echinochloa crus-galli, post-emergence, 0.25 lb/A; read-out: % plant inhibition
Source text: as §1

Morning Glory [3] = assay: post-emergence herbicide test; conditions: Ipomoea, post-emergence, 0.25 lb/A; read-out: % plant inhibition
Source text: as §1

Common Chickweed [4] = assay: post-emergence herbicide test; conditions: post-emergence, 0.25 lb/A; read-out: % plant inhibition
Source text: as §1

Rape [5] = assay: post-emergence herbicide test; conditions: post-emergence, 0.25 lb/A; read-out: % plant inhibition
Source text: as §1

Corn [6] = assay: post-emergence herbicide test; conditions: Zea mays, post-emergence, 0.25 lb/A; read-out: % plant inhibition
Source text: as §1

Cocklebur [7] = assay: post-emergence herbicide test; conditions: Xanthium strumarium, post-emergence, 0.25 lb/A; read-out: % plant inhibition
Source text: as §1

Bedstraw Catchweed [8] = assay: post-emergence herbicide test; conditions: Galium aparine, post-emergence, 0.25 lb/A; read-out: % plant inhibition
Source text: as §1

Seedling Johnsongrass [9] = assay: post-emergence herbicide test; conditions: Sorghum halepense, post-emergence, 0.25 lb/A; read-out: % plant inhibition
Source text: as §1

Downy Brome [10] = assay: post-emergence herbicide test; conditions: Bromus tectorum, post-emergence, 0.25 lb/A; read-out: % plant inhibition
Source text: as §1

Giant Foxtail [11] = assay: post-emergence herbicide test; conditions: Setaria faberi, post-emergence, 0.25 lb/A; read-out: % plant inhibition
Source text: as §1

Green Foxtail [12] = assay: post-emergence herbicide test; conditions: Setaria viridis, post-emergence, 0.25 lb/A; read-out: % plant inhibition
Source text: as §1

Blackgrass [13] = assay: post-emergence herbicide test; conditions: Alopecurus myosuroides, post-emergence, 0.25 lb/A; read-out: % plant inhibition
Source text: as §1

Wild Oats [14] = assay: post-emergence herbicide test; conditions: Avena fatua, post-emergence, 0.25 lb/A; read-out: % plant inhibition
Source text: as §1

Birdseye Speedwell [15] = assay: post-emergence herbicide test; conditions: post-emergence, 0.25 lb/A; read-out: % plant inhibition
Source text: as §1

Soybean [16] = assay: post-emergence herbicide test; conditions: Glycine max, post-emergence, 0.25 lb/A; read-out: % plant inhibition
Source text: as §1

Velvetleaf [17] = assay: post-emergence herbicide test; conditions: Abutilon theophrasti, post-emergence, 0.25 lb/A; read-out: % plant inhibition
Source text: as §1

Wheat [18] = assay: pre-emergence herbicide test; conditions: Triticum aestivum, pre-emergence, 0.25 lb/A; read-out: % plant inhibition
Experimental: (§2) Topsoil was placed in an aluminum pan and compacted to a depth of 1.3 to 1.6 cm from the top of the pan. On the top of the soil was placed a predetermined number of seeds of each of several monocotyledonous and dicotyledonous annual plant species and/or vegetative propagules of various perennial plant species. The pan was then level filled with a cover layer of topsoil to which was added a known amount of active ingredient either prior to or after application of the cover layer. The active ingredient was dissolved or suspended in an organic solvent, e.g., acetone, or water as carrier for application to the cover layer. The pans were moved to a greenhouse bench where they were thereafter watered from below as needed to give adequate moisture for germination and growth. In some cases, an initial overhead irrigation of 1/4 inch of water was applied immediately after treatment.
(§3) Approximately 14 days after seeding and treating, the pans were observed and the results (% inhibition) were recorded.
(§4) The tables below summarize the results of the pre-emergence herbicidal activity tests of compounds of this invention tested with warm season plants (Tables 2a-2d) and cool season plants (Tables 3a and 3b). The herbicidal rating shown in these tables is the percent inhibition of each plant species. The plant species usually regarded as weeds are identified in the tables by single letter headings and crop species identified by two letter headings both headings being above the columns in accordance with the following legend: […]

Barnyardgrass [19] = assay: pre-emergence herbicide test; conditions: 0.25 lb/A; for inhibition at 280.212 g/ha: Echinochloa crus-galli, pre-emergence, read-out: % plant inhibition
Experimental: as §2, §3, §4

Morning Glory [20] = assay: pre-emergence herbicide test; conditions: 0.25 lb/A; for inhibition at 280.212 g/ha: Ipomoea, pre-emergence, read-out: % plant inhibition
Experimental: as §2, §3, §4

Common Chickweed [21] = assay: pre-emergence herbicide test; conditions: pre-emergence, 0.25 lb/A; read-out: % plant inhibition
Experimental: as §2, §3, §4

Rape [22] = assay: pre-emergence herbicide test; conditions: pre-emergence, 0.25 lb/A; read-out: % plant inhibition
Experimental: as §2, §3, §4

Corn [23] = assay: pre-emergence herbicide test; conditions: 0.25 lb/A; for inhibition at 280.212 g/ha: Zea mays, pre-emergence, read-out: % plant inhibition
Experimental: as §2, §3, §4

Cocklebur [24] = assay: pre-emergence herbicide test; conditions: 0.25 lb/A; for inhibition at 280.212 g/ha: Xanthium strumarium, pre-emergence, read-out: % plant inhibition
Experimental: as §2, §3, §4

Bedstraw Catchweed [25] = assay: pre-emergence herbicide test; conditions: Galium aparine, pre-emergence, 0.25 lb/A; read-out: % plant inhibition
Experimental: as §2, §3, §4

Seedling Johnsongrass [26] = assay: pre-emergence herbicide test; conditions: 0.25 lb/A; for inhibition at 280.212 g/ha: Sorghum halepense, pre-emergence, read-out: % plant inhibition
Experimental: as §2, §3, §4

Downy Brome [27] = assay: pre-emergence herbicide test; conditions: Bromus tectorum, pre-emergence, 0.25 lb/A; read-out: % plant inhibition
Experimental: as §2, §3, §4

Giant Foxtail [28] = assay: pre-emergence herbicide test; conditions: 0.25 lb/A; for inhibition at 280.212 g/ha: Setaria faberi, pre-emergence, read-out: % plant inhibition
Experimental: as §2, §3, §4

Green Foxtail [29] = assay: pre-emergence herbicide test; conditions: Setaria viridis, pre-emergence; 0.25 lb/A; read-out: % plant inhibition
Experimental: as §2, §3, §4

Blackgrass [30] = assay: pre-emergence herbicide test; conditions: Alopecurus myosuroides, pre-emergence, 0.25 lb/A; read-out: % plant inhibition
Experimental: as §2, §3, §4

Wild Oats [31] = assay: pre-emergence herbicide test; conditions: Avena fatua, pre-emergence, 0.25 lb/A; read-out: % plant inhibition
Experimental: as §2, §3, §4

Birdseye Speedwell [32] = assay: pre-emergence herbicide test; conditions: pre-emergence, 0.25 lb/A; read-out: % plant inhibition
Experimental: as §2, §3, §4

Soybean [33] = assay: pre-emergence herbicide test; conditions: Glycine max, pre-emergence, 0.25 lb/A; read-out: % plant inhibition
Experimental: as §2, §3, §4

Velvetleaf [34] = assay: pre-emergence herbicide test; conditions: 0.25 lb/A; for inhibition at 280.212 g/ha: Abutilon theophrasti, pre-emergence, read-out: % plant inhibition
Experimental: as §2, §3, §4

| Structure (SMILES) | inhibition at 280.212 g/ha (Wheat [1]) [%] | inhibition at 280.212 g/ha (Barnyardgrass [2]) [%] | inhibition at 280.212 g/ha (Morning Glory [3]) [%] | inhibition at 280.212 g/ha (Common Chickweed [4]) [%] | inhibition at 280.212 g/ha (Rape [5]) [%] | inhibition at 280.212 g/ha (Corn [6]) [%] | inhibition at 280.212 g/ha (Cocklebur [7]) [%] | inhibition at 280.212 g/ha (Bedstraw Catchweed [8]) [%] | inhibition at 280.212 g/ha (Seedling Johnsongrass [9]) [%] | inhibition at 280.212 g/ha (Downy Brome [10]) [%] | inhibition at 280.212 g/ha (Giant Foxtail [11]) [%] | inhibition at 280.212 g/ha (Green Foxtail [12]) [%] | inhibition at 280.212 g/ha (Blackgrass [13]) [%] | inhibition at 280.212 g/ha (Wild Oats [14]) [%] | inhibition at 280.212 g/ha (Birdseye Speedwell [15]) [%] | inhibition at 280.212 g/ha (Soybean [16]) [%] | inhibition at 280.212 g/ha (Velvetleaf [17]) [%] | inhibition at 280.212 g/ha (Wheat [18]) [%] | inhibition at 280.212 g/ha (Barnyardgrass [19]) [%] | inhibition at 280.212 g/ha (Common Chickweed [21]) [%] | further results |
| --- | --- | --- | --- | --- | --- | --- | --- | --- | --- | --- | --- | --- | --- | --- | --- | --- | --- | --- | --- | --- | --- |
| CC(C)OC(=O)c1cc(-c2nn(C)c(C(F)(F)F)c2CF)c(F)cc1Cl [Compound 15, 2-Chloro-4-fluoro-5-[4-(fluoromethyl)-1-methyl-5-(trifluoromethyl)-1H-pyrazol-3-yl]benzoic acid, 1-methylethyl ester] | 20 | 99 | 98 | 100 | 100 | 65 | 99 | 100 | 100 | 100 | 90 | 100 | 100 | 100 | 100 | 90 | 100 | 0 | 100 | 100 | inhibition at 280.212 g/ha (Morning Glory [20]): 93%; inhibition at 280.212 g/ha (Rape [22]): 60%; inhibition at 280.212 g/ha (Corn [23]): 93%; inhibition at 280.212 g/ha (Cocklebur [24]): 90%; inhibition at 280.212 g/ha (Bedstraw Catchweed [25]): 98%; inhibition at 280.212 g/ha (Seedling Johnsongrass [26]): 100%; inhibition at 280.212 g/ha (Downy Brome [27]): 100%; inhibition at 280.212 g/ha (Giant Foxtail [28]): 100%; inhibition at 280.212 g/ha (Green Foxtail [29]): 100%; inhibition at 280.212 g/ha (Blackgrass [30]): 100%; inhibition at 280.212 g/ha (Wild Oats [31]): 90%; inhibition at 280.212 g/ha (Birdseye Speedwell [32]): 100%; inhibition at 280.212 g/ha (Soybean [33]): 20%; inhibition at 280.212 g/ha (Velvetleaf [34]): 97% |
| CCCOC(=O)c1cc(-c2nn(C)c(C(F)(F)F)c2C)c(F)cc1Cl [Compound 19] | 10 | 65 | 35 | 50 | 15 | 20 | 75 | 60 | 50 | 25 | 65 | 20 | 20 | 20 | 55 | 50 | 90 | 0 | 98 | 100 | % plant inhibition (Barnyardgrass [19]): 95%; inhibition at 280.212 g/ha (Rape [22]): 50%; % plant inhibition (Corn [23]): 28%; inhibition at 280.212 g/ha (Corn [23]): 25%; % plant inhibition (Cocklebur [24]): 70%; inhibition at 280.212 g/ha (Cocklebur [24]): 60%; inhibition at 280.212 g/ha (Bedstraw Catchweed [25]): 80%; % plant inhibition (Seedling Johnsongrass [26]): 85%; inhibition at 280.212 g/ha (Seedling Johnsongrass [26]): 95%; inhibition at 280.212 g/ha (Downy Brome [27]): 40%; % plant inhibition (Giant Foxtail [28]): 100%; inhibition at 280.212 g/ha (Giant Foxtail [28]): 99%; inhibition at 280.212 g/ha (Green Foxtail [29]): 100%; inhibition at 280.212 g/ha (Blackgrass [30]): 95%; inhibition at 280.212 g/ha (Wild Oats [31]): 75%; inhibition at 280.212 g/ha (Birdseye Speedwell [32]): 100%; % plant inhibition (Velvetleaf [34]): 98%; inhibition at 280.212 g/ha (Velvetleaf [34]): 90% |
| CCOC(=O)c1cc(-c2nn(C)c(C(F)(F)F)c2C)c(F)cc1Cl [Compound 26, 2-chloro-5-[1,4-dimethyl-5-(trifluoromethyl)-1H-pyrazol-3-yl]-4-fluorobenzoic acid ethyl ester] | 17 | 95 | 50 | 85 | 60 | 25 | 85 | 60 | 50 | 45 | 45 | 60 | 35 | 35 | 85 | 75 | 99 | 0 | 100 | 100 | % plant inhibition (Morning Glory [20]): 97% and 98%; inhibition at 280.212 g/ha (Morning Glory [20]): 90%; inhibition at 280.212 g/ha (Rape [22]): 40%; % plant inhibition (Cocklebur [24]): 93% and 92%; inhibition at 280.212 g/ha (Cocklebur [24]): 85%; inhibition at 280.212 g/ha (Bedstraw Catchweed [25]): 50%; inhibition at 280.212 g/ha (Seedling Johnsongrass [26]): 100%; inhibition at 280.212 g/ha (Downy Brome [27]): 55%; % plant inhibition (Giant Foxtail [28]): 100%; inhibition at 280.212 g/ha (Giant Foxtail [28]): 99%; inhibition at 280.212 g/ha (Green Foxtail [29]): 100%; inhibition at 280.212 g/ha (Blackgrass [30]): 95%; inhibition at 280.212 g/ha (Wild Oats [31]): 65%; inhibition at 280.212 g/ha (Birdseye Speedwell [32]): 100%; inhibition at 280.212 g/ha (Velvetleaf [34]): 100% |
